In paper PMC6865181, “Role of L-Type Amino Acid Transporter 1 (LAT1) for the Selective Cytotoxicity of Sesamol in Human Melanoma Cells” (Molecules, 2019):
Like-named read-outs stand apart in the source and are kept apart here. Marks after values point to notes of the source that are not given here.

What was measured:
LAT1 [1] = molecular target: T1, LAT1 (Homo sapiens, UniProt Q01650); assay: LAT1 function: competitive uptake of L-dopa in SK-MEL-2 cells; type: cell-based; details: SK-MEL-2, L-dopa 0.1 mM, 10 min
T1 sequence (Q01650 whole entry): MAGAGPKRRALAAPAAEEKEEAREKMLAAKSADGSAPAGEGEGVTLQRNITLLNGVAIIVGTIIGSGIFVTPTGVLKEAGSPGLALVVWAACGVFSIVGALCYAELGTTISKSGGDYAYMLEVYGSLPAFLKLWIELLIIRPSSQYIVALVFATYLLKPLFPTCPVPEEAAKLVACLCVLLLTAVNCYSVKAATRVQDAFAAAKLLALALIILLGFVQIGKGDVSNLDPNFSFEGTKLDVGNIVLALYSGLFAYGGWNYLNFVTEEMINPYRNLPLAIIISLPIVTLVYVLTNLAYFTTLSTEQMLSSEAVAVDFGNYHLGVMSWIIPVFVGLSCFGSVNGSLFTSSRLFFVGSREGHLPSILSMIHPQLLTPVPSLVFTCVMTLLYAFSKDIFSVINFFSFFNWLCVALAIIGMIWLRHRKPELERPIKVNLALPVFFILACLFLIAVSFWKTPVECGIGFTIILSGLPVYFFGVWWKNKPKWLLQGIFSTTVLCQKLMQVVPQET
T1 sequence (P08195 102-630 partner): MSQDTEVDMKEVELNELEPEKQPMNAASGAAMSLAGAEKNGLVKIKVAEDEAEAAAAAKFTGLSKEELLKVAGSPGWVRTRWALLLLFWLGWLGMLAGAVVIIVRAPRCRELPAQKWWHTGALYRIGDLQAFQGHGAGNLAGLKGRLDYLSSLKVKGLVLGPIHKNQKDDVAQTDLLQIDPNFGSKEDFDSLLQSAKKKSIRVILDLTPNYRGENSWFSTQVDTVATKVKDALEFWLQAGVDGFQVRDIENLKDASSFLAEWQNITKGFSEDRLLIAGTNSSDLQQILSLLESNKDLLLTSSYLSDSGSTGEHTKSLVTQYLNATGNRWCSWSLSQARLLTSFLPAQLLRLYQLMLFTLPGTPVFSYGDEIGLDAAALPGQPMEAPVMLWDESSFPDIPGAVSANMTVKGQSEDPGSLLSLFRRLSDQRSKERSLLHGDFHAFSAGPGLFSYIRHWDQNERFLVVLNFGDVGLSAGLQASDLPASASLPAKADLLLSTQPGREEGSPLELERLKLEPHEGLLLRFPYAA
Description: (§1) SK-MEL-2 and Vero cells were seeded separately into 24-well plates at 2 × 10^5 cells/well for 24 h. The media was removed, and the cells pre-incubated with HBSS pH 7.4 for 10 min. The cells were used for the following experiments.
(§2) Sesamol was also investigated for its affinity to LAT1. […] Competitive uptake was performed for 10 min then the cells were washed twice with ice-cold PBS. The L-dopa was solubilized by 0.1 M HCl and the cell lysate (25 µL) was pipetted for protein determination. […] Intracellular and extracellular L-dopa was quantified by the HPLC assay. The L-dopa uptake was represented as the distribution volume of L-dopa in a cell to media ratio (C/M ratio) as calculated in Section 4.3.1.
The analysis was based on a BDS Hypersil C-18 column, (4.6 × 250 mm, 5 µm packing, Thermo Fisher Scientific, Waltham, MA, USA). The column temperature was set at 30 °C with a flow rate of 0.8 mL/min. The mobile phase for sesamol quantification was 70% methanol in water, vs. 20% methanol in water for L-dopa. […] The validated sesamol quantification conducted using sesamol spiked cell lysate with high selectivity and clear separation from the endogenous cell lysate as previously reported. The % bias and % precision was determined within and between days, each was maintained below 6%.

Vero cells [2] = assay: Time-course of sesamol cellular uptake (distribution) in Vero cells; type: in vitro ADME, African green monkey
Description: (§3) The cells were used for the following experiments.
(§4) The cells were exposed to 1 mM (200 µL) sesamol and incubated at 37 °C at various times (0.5, 1, 3, 5, 10, and 15 min). The media was plated into 96-well plates prior to measuring the extracellular sesamol content by HPLC analysis. […] The sesamol content in 20 µL of cell lysate was quantified using HPLC assay as described in the analytical procedure.
(§5) The cellular uptake of sesamol was determined based on the sesamol content in cells (nmol/mg protein) to medium (nmol/µL) (expressed as C/M ratio, µL/mg protein). The linear regression of the C/M ratio from 0.5 to 3 min was performed (r^2 > 0.90); to give the initial distribution volume (µL/mg protein) from the y-intercept, and the initial uptake clearance (µL/min/mg protein) from the slope.

[3] = stated in the introduction without reference; cited from earlier work
Vero cells [4] = assay: Uptake kinetics of sesamol at 37 °C and 4 °C in Vero cells; details: for Pd (sesamol passive diffusion) / Vmax (sesamol uptake): 1 min
Description: as §1
(§6) The cells were pre-incubated with HBSS pH 7.4 at 37 °C and at 4 °C both for 10 min. The cells were treated with sesamol (200 µL; range, 31.5 to 1,000 μM) and incubated under each condition for another 1 min, to exclude the influence of efflux or metabolism processes as per the previous report. The uptake process at 37 °C represented the total uptake of sesamol in the cells, including both carrier-mediated transport and passive transport; whereas the uptake process at 4 °C represented mainly passive transport.
(§7) The uptake kinetics was fitted using Michaelis-Menten kinetics (non-linear least square kinetics model) (r^2 > 0.90) Equation (1) that allowed estimation of Vmax, Km, and Pd values.
(§8) V = (Vmax × [S])/(Km + [S]) + Pd × [S](1)
(§9) V = uptake velocity at a certain amount of substrate (nmol/min/mg protein)
(§10) Vmax = maximum uptake velocity (nmol/min/mg protein)
(§11) [S] = concentration of sesamol at extracellular compartment (µM)
(§12) Km = concentration of sesamol at half of Vmax (µM)
(§13) Pd = passive lipoidal diffusion uptake rate (µL/min/mg protein)
(§14) The rate to reach total uptake clearance of carrier-mediated transport was obtained from the ratio of Vmax to Km (µL/min/mg protein). The total uptake clearance of the process (µL/min/mg protein) was obtained from (Vmax /Km) + Pd.

LAT1 [5] = molecular target: T1, LAT1; assay: cell-based; details: SK-MEL-2; sesamol 0.1 mM, uptake equilibrium 10 min
Description: as §1
(§15) Competitive inhibition of uptake of sesamol was done in both SK-MEL-2 and the Vero cells. […] The cells were washed twice with ice-cold PBS, solubilized in methanol, and centrifuged at 2400× g, at 4 °C for 20 min. The precipitated protein was re-solubilized by 0.1 M NaOH prior to protein determination. The sesamol content was quantified using HPLC assay. The cellular uptake of sesamol was calculated as per the C/M ratio.
(§16) Quantitative analysis of sesamol and L-dopa were performed using a Shimadzu HPLC (LC-2030C-3D) with a UV photodiode array detector (DAD) (Kyoto, Japan). The analysis was based on a BDS Hypersil C-18 column, (4.6 × 250 mm, 5 µm packing, Thermo Fisher Scientific, Waltham, MA, USA). The column temperature was set at 30 °C with a flow rate of 0.8 mL/min. The mobile phase for sesamol quantification was 70% methanol in water, vs. 20% methanol in water for L-dopa. The respective detection wavelength and elution time for sesamol and L-dopa was 297 nm and 280 nm and 4.2 and 4.5 min. The validated sesamol quantification conducted using sesamol spiked cell lysate with high selectivity and clear separation from the endogenous cell lysate as previously reported. The % bias and % precision was determined within and between days, each was maintained below 6%.

SK-MEL-2 cells [6] = assay: Uptake kinetics of sesamol at 37 °C and 4 °C in SK-MEL-2 cells; details: for Pd (sesamol passive diffusion) / Vmax (sesamol uptake) / Km: 1 min; for Km: read-out: Km (sesamol uptake)
Description: as §1, §6, §7, §8, §9, §10, §11, §12, §13, §14

SK-MEL-2 cells [7] = assay: Antiproliferative effect, neutral red uptake assay, SK-MEL-2 cells; type: cell-based, human
Description: (§17) The SK-MEL-2 and Vero cells (at 5 × 10^4 cells/well) were seeded separately into 96-well plates. After the cells were exposed to the tested compounds (200 µL) for 24 h, neutral red (50 µg/mL) (Sigma-Aldrich, St. Louis, MO, USA) was incorporated into the cells for 2 h. The cells were then washed with ice-cold PBS and lysed using 0.33% HCl in isopropanol. The absorbances of neutral red were measured at 540 nm with a reference wavelength of 660 nm using a UV-microplate reader (Perkin Elmer, Waltham, MA, USA). […] The selective index was calculated from the ratio of the IC50 of Vero and SK-MEL-2 cells.

Vero cells [8] = assay: Antiproliferative effect, neutral red uptake assay, Vero cells; type: cell-based, African green monkey; details: Vero cells, 24 h exposure, neutral red; read-out: IC50 (cell viability)
Description: as §17

LAT1 [9] = assay: LAT1 function: competitive uptake of L-dopa in Vero cells; type: cell-based, African green monkey; details: L-dopa 0.1 mM, 10 min
Description: as §1, §2, §16

LAT1 [10] = details: Vero cells; sesamol 0.1 mM, uptake equilibrium 10 min
Description: as §1, §15, §16

SK-MEL-2 cells [11] = assay: Time-course of sesamol cellular uptake (distribution) in SK-MEL-2 cells; type: in vitro ADME, human
Description: as §3, §4, §5

[12] = competitor (BCH, L-tyrosine, sesamol 1 mM; L-leucine, L-alanine 2 mM; melphalan 0.05 mM)
[13] = competitor at the concentration printed in the row
[14] = 1 mM sesamol, 37 °C, linear regression 0.5-3 min

For Oc1ccc2c(c1)OCO2 [Sesamol], the “Percent Inhibition of L-Dopa Distribution Volume” value (LAT1 [1]; [12]) was 44%, the “L-Dopa Distribution Volume in presence of the compound” value (LAT1 [1]; [13]) was 207.6 ± 31.5 µL/mg Protein and the initial distribution volume (Vero cells [2]; [14]) was 5.7 ± 0.4 µL/mg protein. The initial uptake clearance (Vero cells [2]; [14]) was 1.3 ± 0.2 µL/min/mg protein, the “reduction in sesamol distribution volume at 4 °C compared to 37 °C” value (Vero cells [2]; 30 s) was 33% and the “time at which sesamol uptake reached a steady state” value (Vero cells [2]; 37 °C) was “about 5 min”. For the same compound, the “reduction in sesamol distribution volume at 4 °C compared to 37 °C” value (Vero cells [2]; 1 min) was 23%, the logP [3] was 1.29 and the “Pd (sesamol passive diffusion)” value (Vero cells [4]; 4 °C) was 2.4 ± 0.3^a µL/min/mg. The “Vmax (sesamol uptake)” value (Vero cells [4]; 4 °C) was 0.4 ± 0.1^b nmol/min/mg, the “Pd (passive diffusion of sesamol)” value (Vero cells [4]; 37 °C) was 2.1 ± 0.1 µL/min/mg protein and the “Vmax (carrier-mediated transport of sesamol)” value (Vero cells [4]; 37 °C) was 0.9 ± 0.0 nmol/min/mg protein. The “carrier-mediated transport as share of total uptake clearance” value (Vero cells [4]; 37 °C) was 72%, the “Pd (sesamol passive diffusion)” value (Vero cells [4]; 37 °C, sesamol alone) was 2.1 ± 0.1^a µL/min/mg and the “Vmax (sesamol uptake)” value (Vero cells [4]; 37 °C, sesamol alone) was 0.9 ± 0.0^a nmol/min/mg. The Km (Vero cells [4]; read-out: Km (sesamol uptake), 4 °C, 1 min) was 66.1 ± 20 µM, the Km (Vero cells [4]; read-out: Km (sesamol uptake), 37 °C, sesamol alone, 1 min) was 160 ± 18.4 µM and the “Sesamol Distribution Volume, control (no competitor)” value (LAT1 [5]) was 0% (23.2 ± 2.1)^a µL/mg Protein. For the same compound, the “carrier-mediated uptake clearance in SK-MEL-2 cells relative to Vero cells” value (SK-MEL-2 cells [6]; 37 °C) was 3.4 fold, the “Pd (sesamol passive diffusion)” value (SK-MEL-2 cells [6]; SK-MEL-2, 4 °C) was 2.7 ± 0.1^a µL/min/mg and the “Vmax (sesamol uptake)” value (SK-MEL-2 cells [6]; SK-MEL-2, 4 °C) was 0.3 ± 0.1^b nmol/min/mg. The “Pd (passive diffusion of sesamol)” value (SK-MEL-2 cells [6]; SK-MEL-2, 37 °C) was 2.3 ± 0.2 µL/min/mg protein, the “Vmax (carrier-mediated transport of sesamol)” value (SK-MEL-2 cells [6]; SK-MEL-2, 37 °C) was 4.2 ± 0.1 nmol/min/mg protein and the “carrier-mediated transport as share of total uptake clearance” value (SK-MEL-2 cells [6]; SK-MEL-2, 37 °C) was 89%. The “Pd (sesamol passive diffusion)” value (SK-MEL-2 cells [6]; SK-MEL-2, 37 °C, sesamol alone) was 2.3 ± 0.2^b µL/min/mg, the “Vmax (sesamol uptake)” value (SK-MEL-2 cells [6]; SK-MEL-2, 37 °C, sesamol alone) was 4.2 ± 0.1^a nmol/min/mg and the Km (SK-MEL-2 cells [6]; SK-MEL-2, 4 °C) was 26.8 ± 9.8 µM. For the same compound, the Km (SK-MEL-2 cells [6]; SK-MEL-2, 37 °C, sesamol alone) was 225 ± 19.3 µM, the “Selective Index” value (SK-MEL-2 cells [7]) was 3.4 and the IC50 (SK-MEL-2 cells [7]; SK-MEL-2, 24 h exposure, neutral red, read-out: IC50 (cell viability)) was 2 ± 0.1 mM. For the same compound, the IC50 (Vero cells [8]) was 6.7 ± 0.2 mM, the “Percent Inhibition of L-Dopa Distribution Volume” value (LAT1 [9]; [12]) was 33% and the “L-Dopa Distribution Volume in presence of the compound” value (LAT1 [9]; [13]) was 103.9 ± 9.2 µL/mg Protein. For the same compound, the “Sesamol Distribution Volume, control (no competitor)” value (LAT1 [10]) was 0% (17.9 ± 1.7)^a µL/mg Protein, the initial distribution volume (SK-MEL-2 cells [11]; [14]) was 6.0 ± 0.4 µL/mg protein and the initial uptake clearance (SK-MEL-2 cells [11]; [14]) was 2.6 ± 0.1 µL/min/mg protein. The “suppression of sesamol uptake at 4 °C compared to 37 °C” value (SK-MEL-2 cells [11]; 30 s) was 45%, the “time at which sesamol uptake reached a steady state” value (SK-MEL-2 cells [11]; 37 °C) was “approximately 10 min” and the “suppression of sesamol uptake at 4 °C compared to 37 °C” value (SK-MEL-2 cells [11]; 1 min) was 61%.
